Target: Neuronal acetylcholine receptor; alpha4/beta2 (Rattus norvegicus, UniProt P09483+P12390)
Test: Binding affinity for rat brain Nicotinic acetylcholine receptor alpha4-beta2 using [3H]S-(-)-nicotine

Chain of Neuronal acetylcholine receptor; alpha4/beta2 (P09483 whole entry): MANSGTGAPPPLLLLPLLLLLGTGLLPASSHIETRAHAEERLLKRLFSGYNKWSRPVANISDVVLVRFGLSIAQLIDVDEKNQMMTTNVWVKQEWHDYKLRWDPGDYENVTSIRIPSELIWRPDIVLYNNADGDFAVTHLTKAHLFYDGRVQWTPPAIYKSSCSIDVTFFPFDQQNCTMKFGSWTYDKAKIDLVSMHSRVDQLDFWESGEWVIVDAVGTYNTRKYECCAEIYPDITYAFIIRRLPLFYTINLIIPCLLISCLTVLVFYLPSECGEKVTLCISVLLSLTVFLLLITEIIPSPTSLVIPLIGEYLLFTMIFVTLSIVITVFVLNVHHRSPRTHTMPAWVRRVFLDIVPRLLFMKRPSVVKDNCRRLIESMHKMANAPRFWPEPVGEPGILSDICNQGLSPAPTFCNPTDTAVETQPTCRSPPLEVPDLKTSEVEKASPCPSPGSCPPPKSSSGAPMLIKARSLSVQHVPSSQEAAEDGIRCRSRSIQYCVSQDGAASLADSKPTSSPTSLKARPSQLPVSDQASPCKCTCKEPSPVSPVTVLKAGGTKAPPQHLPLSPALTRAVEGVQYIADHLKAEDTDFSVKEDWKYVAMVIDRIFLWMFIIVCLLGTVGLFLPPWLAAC
Chain of Neuronal acetylcholine receptor; alpha4/beta2 (P12390 whole entry): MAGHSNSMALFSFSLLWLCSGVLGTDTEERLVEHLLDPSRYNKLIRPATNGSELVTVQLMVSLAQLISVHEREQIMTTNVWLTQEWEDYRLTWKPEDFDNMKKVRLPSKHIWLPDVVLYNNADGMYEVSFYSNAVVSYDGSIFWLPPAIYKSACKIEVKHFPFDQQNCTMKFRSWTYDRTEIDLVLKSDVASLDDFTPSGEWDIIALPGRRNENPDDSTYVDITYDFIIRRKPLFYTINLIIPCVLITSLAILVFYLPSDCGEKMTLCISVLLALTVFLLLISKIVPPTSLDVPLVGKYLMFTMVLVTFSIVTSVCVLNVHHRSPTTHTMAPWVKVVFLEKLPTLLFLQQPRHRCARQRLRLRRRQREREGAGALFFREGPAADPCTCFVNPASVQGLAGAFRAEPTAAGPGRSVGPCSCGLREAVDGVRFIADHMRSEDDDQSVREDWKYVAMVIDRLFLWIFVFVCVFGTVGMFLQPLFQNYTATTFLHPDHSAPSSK

Row | Structure (SMILES) | Ki [nM]
1 | CCN(C)CCc1cncc(Br)c1 | 360
2 | CCN(C)CCc1ccc(Cl)nc1 | 70
3 | CCN(C)CCc1cncc(C)c1 | 370
4 | CCN(C)CCc1ccc(C)nc1 | 240
5 | CCN(C)CCc1ccc(CCc2ccc(OC)cc2)nc1 | > 10000
6 | CCN(C)CCc1cnccc1OC | 1840
7 | CCN(C)CCc1cnccc1N | > 10000
8 | CCN(C)CCc1ccc(CCc2ccc(Cl)cc2)nc1 | > 10000
9 | CCN(C)CCc1cncc(OC)c1 | 19
10 | CCN(C)CCc1cncc(Cl)c1 | 310
11 | CCN(C)CCc1ccc(Br)nc1 | 83

From ChEMBL document CHEMBL1141059, “3-(2-Aminoethyl)pyridine analogs as alpha4beta2 nicotinic cholinergic receptor ligands” (Bioorg Med Chem Lett, 2005)
